From EPA's ToxValDB 9.5 come the findings set out here.

The subject of series [1] is Rattus norvegicus. As to conditions: for LC50 / LD50: acute.
Series [2] deals with Rattus norvegicus. The series is described as follows: LD0; higher = less toxic. The conditions noted are these: acute; dermal; semiocclusive; Sprague-Dawley.
In series [3] the test system is Oryctolagus sp. The conditions noted are these: dermal; for LD50: acute.
Series [4] concerns Rattus norvegicus. The series is described as follows: LC100; higher = less toxic. As to conditions: acute; inhalation.
For series [5], the system named is Oryctolagus sp. As to the kind of experiment: LD0; higher = less toxic. As to conditions: acute, dermal, New Zealand.
For series [6], the system named is Rattus norvegicus. As to conditions: repeat dose other; oral.
A further series has as its system Coturnix japonica. As to conditions: repeat dose other; oral.
The subject of series [7] is Rattus norvegicus. The conditions noted are these: for LEL: uterotrophic, Active.
Series [8] deals with Mus musculus. As to conditions: uterotrophic; duration: 3 days; injection; subcutaneous; Active.
Another series has as its system Cavia porcellus. The conditions noted are these: acute; Inhalation.
Series [9] relates to Homo sapiens. The conditions noted are these: clinical; oral; M; Restoration normal sexual desire, erection, ejaculation, and general well-being.
Series [10] has as its system Mus musculus. As to conditions: subchronic; duration: 13 weeks; oral; gavage; M/F; CD1; hepatic.
Series [11] relates to Mus musculus. As to conditions: subchronic; duration: 90 days; oral; gavage; M/F; CD-10 (ICR) BR; Whole Body Effects.
In series [12] the test system is Mus musculus. The conditions noted are these: subchronic; oral; M/F; no effects.
Series [13] deals with Canidae. As to conditions: subchronic, duration: 90 days, oral, M/F, Beagle, neurological.
Series [14] has as its system Rattus norvegicus. As to conditions: developmental; oral; gavage; Embryotoxic effects.
Series [15] deals with Homo sapiens. The conditions noted are these: clinical; oral; M; plasma cholinesterase inhibition.
Series [16] relates to Canidae. As to conditions: subchronic; duration: 90 days; oral; diet; M/F; Dog Other; inhibition of brain cholinesterase.
Setting [17] is: short-term, duration: 8 days, oral, gavage, Sprague-Dawley.
Where [18] appears, read: Hershberger, duration: 10 days, oral, gavage, Sprague-Dawley, active + Androgenic + Negative + androgenic.
Setting [19] is: duration: 3 days, injection, subcutaneous.
[20] abbreviates: reproduction developmental, duration: 19 days, oral, gavage, Sprague-Dawley.
[21] abbreviates: subchronic, duration: 90 days, inhalation, Sprague-Dawley.
Where [22] appears, read: short-term, duration: 28 days, occlusive, New Zealand.

In brackets after ≈: the same amount, converted by molar mass. Several values for one entry are separate records, joined by “and”; a condition that tells them apart may be missing. Identical values can stand only once. Counter-ions that a name gives are not always drawn.

Usually NOAEL stands for the highest dose or exposure tested at which no adverse effect was seen. What is called LOAEL is the lowest tested level that showed an adverse finding. Consider `CC(C)C(C)(C)C(C)(C)C(C)(C)SSSSSC(C)(C)C(C)(C)C(C)(C)C(C)C` [Di-tert-Dodecyl pentasulfide], for which the NOAEL in the series with Rattus norvegicus [1] (developmental, duration: 6 days, oral, gavage, Sprague-Dawley) was 1000 mg/kg-day; in the series with Rattus norvegicus [1] (reproduction developmental, duration: 6 days, oral, gavage, F, Sprague-Dawley), 1000 mg/kg-day; in the series with Rattus norvegicus [1] (setting [17]), 1250 mg/kg-day; in the series with Rattus norvegicus [1] (short-term, duration: 28 days, oral, gavage, Sprague-Dawley) it was 1000 mg/kg-day. In addition, in the series with Rattus norvegicus [1] (setting [17]), the LOAEL is 2500 mg/kg-day. The LD0 with Rattus norvegicus [2] was at least 2000 mg/kg.
In general, LD50 refers to the dose expected to kill half of the subjects tested. On to `CCOS(=O)(=O)OCC` [Ethyl sulfate (Et2SO4)], for which the LC50 in the series with Rattus norvegicus [1] (inhalation) was ≥ 1580 mg/m3 and ≤ 3150 mg/m3. Further, the LD50 is 350 mg/kg with Rattus norvegicus [1] (injection, subcutaneous); 880 mg/kg in the series on Rattus norvegicus [1] (oral); 706 mg/kg in the series with Oryctolagus sp. [3]. In the series on Rattus norvegicus [4], this compound came in with an LC100 of 3150 mg/m3.
For the compound `O=[N+]([O-])C(CO)(CO)CO` [2-(Hydroxymethyl)-2-nitro-1,3-propanediol], the LC50 in the series with Rattus norvegicus [1] (Inhalation, Sprague-Dawley) is 2.4 µg/mL (≈ 15.9 µM); with Rattus norvegicus [1] (inhalation, particle, Sprague-Dawley), over 2.12 µg/mL. Besides, the LD50 in the series with Rattus norvegicus [1] (oral, gavage) is ≥ 990 mg/kg and ≤ 1000 mg/kg. In addition, the LD0 is over 5000 mg/kg in the series with Rattus norvegicus [2] and over 2000 mg/kg in the series on Oryctolagus sp. [5] (semiocclusive).
In the series on Rattus norvegicus [6], `[Mn+2].[Mn+3].[Mn+3].[O-2].[O-2].[O-2].[O-2]` [Manganese oxide (Mn3O4)] yielded an LOAEL of 284 mg/kg-day and an NOAEL of 88 mg/kg-day. In the series with Coturnix japonica, this compound showed an NOAEL of 997 mg/kg-day.
Consider `C[C@]12CC[C@H]3C(=CCc4cc(O)ccc43)[C@@H]1CCC2=O` [Equilin], for which the LOEL in the series on Rattus norvegicus [7] (setting [18]) was 2 mg/kg-day. In the series with Rattus norvegicus [7] (setting [18]), the NOEL was 0.5 mg/kg-day. In addition, the LEL with Rattus norvegicus [7] (setting [19]) is 2 mg/kg-day; in the series on Rattus norvegicus [7] (duration: 7 days, injection, subcutaneous) it was 0.00025 mg/day. In addition, the “LEL (gamma)” value in the series on Mus musculus [8] is 1 and 3.
With `CC(C)(N=C=O)c1cccc(C(C)(C)N=C=O)c1` [1,3-Bis(2-isocyanato-2-propyl)benzene], the LC50 with Rattus norvegicus [1] (inhalation, Sprague-Dawley) was 0.027 µg/mL (≈ 0.111 µM); with Cavia porcellus, 0.24 µg/mL (≈ 0.982 µM). Further, the LD50 in the series on Rattus norvegicus [1] (oral, gavage, Sprague-Dawley) is over 5000 mg/kg; in the series on Oryctolagus sp. [3] (occlusive, New Zealand), over 2000 mg/kg. The same compound displayed an LOAEL in the series on Rattus norvegicus [1] (setting [20]) of 250 mg/kg-day. Moreover, the NOAEL is 150 mg/kg-day in the series on Rattus norvegicus [1] (setting [20]); 150 mg/kg-day in the series on Rattus norvegicus [1] (reproduction developmental, duration: 19 days, oral, gavage, Sprague-Dawley, generation: F0); 250 mg/kg-day in the series on Rattus norvegicus [1] (reproduction developmental, duration: 19 days, oral, gavage, Sprague-Dawley, generation: F1); 150 mg/kg-day in the series on Rattus norvegicus [1] (reproduction developmental, oral, gavage, F, Sprague-Dawley); 250 mg/kg-day with Rattus norvegicus [1] (reproduction developmental, oral, gavage, Sprague-Dawley, generation: F1); 1.5 mg/m3 in the series on Rattus norvegicus [1] (short-term, duration: 4 weeks, Inhalation, Sprague-Dawley).
On to `C[C@]12CC[C@H]3[C@@H](CCC4=CC(=O)CC[C@@]43C)[C@@H]1CC[C@@H]2O` [Testosterone], for which the NOEL in the series on Homo sapiens [9] is 1.7 mg/kg-day; in the series on Rattus norvegicus [7] (Hershberger, duration: 7 days, injection, subcutaneous, Sprague-Dawley, active + Androgenic + androgenic), 0.1 mg/kg-day. This compound yielded an LEL with Rattus norvegicus [7] (setting [19]) of 0.2 mg/day.
`c1ccc2cc3ccccc3cc2c1` [Anthracene] registered an NOAEL in the series with Mus musculus [10] of 1000 mg/kg-day. The NOEL with Mus musculus [11] and in the series on Mus musculus [12] was 1000 mg/kg-day in each case.
In the case of `CCOP(=S)(OCC)SCSP(=S)(OCC)OCC` [Ethion], the figures for the NOAEL in the series on Canidae [13], in the series with Canidae [13] (diet) and in the series with Rattus norvegicus [14] were 0.06 mg/kg-day, 0.06 mg/kg-day and 0.2 mg/kg-day, respectively. For the same compound, the LEL was 0.075 mg/kg-day with Homo sapiens [15] and 0.71 mg/kg-day with Canidae [16]. The figures for the NOEL with Homo sapiens [15] and with Canidae [16] were 0.05 mg/kg-day and 0.06 mg/kg-day, respectively.
In the case of `CSSC` [Methyl disulfide], the LC50 in the series on Rattus norvegicus [1] (inhalation, Sprague-Dawley) was 3100 mg/m3. Also, the LD50 in the series with Rattus norvegicus [1] (oral, gavage, Sprague-Dawley) was ≥ 290 mg/kg and ≤ 500 mg/kg; in the series on Rattus norvegicus [1] (oral, gavage, Wistar) it was 190 mg/kg. Besides, the NOAEL in the series with Rattus norvegicus [1] (developmental, duration: 10 days, inhalation, Crl:CD(SD) BR) was 57.8 mg/m3; in the series with Rattus norvegicus [1] (reproduction developmental, duration: 10 days, inhalation, F, Crl:CD(SD) BR), under 38.5 mg/m3; in the series with Rattus norvegicus [1] (setting [21]) it was 38.5 mg/m3; with Oryctolagus sp. [3] (setting [22]), 10.6 mg/kg-day. Besides, the results for the LOAEL in the series with Rattus norvegicus [1] (setting [21]) and with Oryctolagus sp. [3] (setting [22]) were 193 mg/m3 and 106 mg/kg-day, respectively. Further, the LD0 in the series on Oryctolagus sp. [5] is at least 2000 mg/kg.
